From US20240245682A1, “ALPHA-V-BETA-8 INTEGRIN INHIBITORS AND USES THEREOF” (Pliant Therapeutics, Inc., priority 2022, published 2024) come the findings set out here.

Test in all cases: AlphaScreen proximity-based integrin binding assay with TGF-b1 LAP
Holding throughout (conditions): values given as ranges

One experiment concerns the target human integrin αVβ1 (Homo sapiens, UniProt P05556+P06756). Here is the method: (§1) The biochemical potency of the disclosed compounds was determined using the AlphaScreen® (Perkin Elmer, Waltham, MA) proximity-based assay as described previously (Ullman E F et al., Luminescent oxygen channeling immunoassay: Measurement of particle binding kinetics by chemiluminescence. Proc. Natl. Acad. Sci. USA, Vol. 91, pp. 5426-5430, June 1994, herein incorporated by reference in its entirety). To gauge the potency of inhibitors of binding to each of human integrins αVβ1, αVβ6, and αVβ8, inhibitor compounds were independently incubated with one of αVβ1, αVβ6, or αVβ8, together with TGF-b1 LAP and biotinylated anti-LAP antibody plus acceptor and donor beads, following the manufacture's recommendations. The donor beads were coated with streptavidin. […] All incubations occurred at room temperatures in 50 mM Tris-HCl, pH 7.5, 0.1% BSA supplemented with 1 mM each CaCl2 and MgCl2.
(§2) The order of reagent addition was as follows:
(§3) 1. αVβ1, αVβ6, or αVβ8 integrin, test inhibitor compound, LAP, biotinylated anti-LAP antibody and acceptor beads were all added together.
(§4) 2. After 2 hours, donor beads were added. After another 30 minute incubation, samples were then read.
(§5) Integrin binding was evaluated by exciting donor beads at 680 nm, and measuring the fluorescent signal produced, between 520-620 nm, using a Biotek Instruments (Winooski, VT, USA) SynergyNeo2 multimode plate reader. Compound potency was assessed by determining inhibitor concentrations required to reduce fluorescent light output by 50%. Data analysis for IC50 determinations was carried out by nonlinear four parameter logistic regression analysis using Dotmatics ELN Software (Core Informatics Inc., Branford, Ct). […] Comp #in the Table and Examples below refers to the compound of the corresponding Example number as described in the Synthetic Examples.

Another experiment concerns the target human integrin αVβ6 (Homo sapiens, UniProt P06756+P18564). Here is the method:
as §1, §2, §3, §4, §5

Another experiment deals with human integrin αVβ8 (Homo sapiens, UniProt P06756+P26012). On the procedure:
as §1, §2, §3, §4, §5

Where only a bound is given, the exact number is not on record here.

Sequence of human integrin αVβ6 (P06756 31-992 limits assumed): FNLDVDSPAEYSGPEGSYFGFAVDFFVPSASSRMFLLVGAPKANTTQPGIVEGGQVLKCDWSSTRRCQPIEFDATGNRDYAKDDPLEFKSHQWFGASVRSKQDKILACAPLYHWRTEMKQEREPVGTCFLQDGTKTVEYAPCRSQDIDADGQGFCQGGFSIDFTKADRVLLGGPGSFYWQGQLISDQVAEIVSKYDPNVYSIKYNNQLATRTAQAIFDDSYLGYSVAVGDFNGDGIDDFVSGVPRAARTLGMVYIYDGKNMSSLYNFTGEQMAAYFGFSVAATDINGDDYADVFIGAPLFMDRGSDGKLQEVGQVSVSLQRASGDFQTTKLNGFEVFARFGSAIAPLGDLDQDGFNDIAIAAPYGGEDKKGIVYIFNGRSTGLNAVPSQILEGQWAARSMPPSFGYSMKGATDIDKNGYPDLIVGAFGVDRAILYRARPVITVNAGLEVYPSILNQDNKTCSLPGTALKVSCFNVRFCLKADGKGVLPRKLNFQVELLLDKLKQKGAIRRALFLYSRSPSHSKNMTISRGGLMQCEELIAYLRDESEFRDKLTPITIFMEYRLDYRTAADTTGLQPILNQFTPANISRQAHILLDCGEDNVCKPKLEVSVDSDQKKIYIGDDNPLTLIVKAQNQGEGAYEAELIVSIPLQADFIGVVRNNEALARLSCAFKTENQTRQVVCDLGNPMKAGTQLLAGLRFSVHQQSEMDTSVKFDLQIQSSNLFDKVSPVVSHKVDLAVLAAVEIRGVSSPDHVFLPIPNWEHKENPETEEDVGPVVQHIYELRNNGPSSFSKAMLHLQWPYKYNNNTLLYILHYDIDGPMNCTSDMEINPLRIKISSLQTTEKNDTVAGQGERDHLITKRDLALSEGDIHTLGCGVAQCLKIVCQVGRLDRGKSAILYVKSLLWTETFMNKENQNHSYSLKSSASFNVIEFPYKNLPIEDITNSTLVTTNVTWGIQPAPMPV
Sequence of human integrin αVβ6 (P18564 22-707 limits assumed): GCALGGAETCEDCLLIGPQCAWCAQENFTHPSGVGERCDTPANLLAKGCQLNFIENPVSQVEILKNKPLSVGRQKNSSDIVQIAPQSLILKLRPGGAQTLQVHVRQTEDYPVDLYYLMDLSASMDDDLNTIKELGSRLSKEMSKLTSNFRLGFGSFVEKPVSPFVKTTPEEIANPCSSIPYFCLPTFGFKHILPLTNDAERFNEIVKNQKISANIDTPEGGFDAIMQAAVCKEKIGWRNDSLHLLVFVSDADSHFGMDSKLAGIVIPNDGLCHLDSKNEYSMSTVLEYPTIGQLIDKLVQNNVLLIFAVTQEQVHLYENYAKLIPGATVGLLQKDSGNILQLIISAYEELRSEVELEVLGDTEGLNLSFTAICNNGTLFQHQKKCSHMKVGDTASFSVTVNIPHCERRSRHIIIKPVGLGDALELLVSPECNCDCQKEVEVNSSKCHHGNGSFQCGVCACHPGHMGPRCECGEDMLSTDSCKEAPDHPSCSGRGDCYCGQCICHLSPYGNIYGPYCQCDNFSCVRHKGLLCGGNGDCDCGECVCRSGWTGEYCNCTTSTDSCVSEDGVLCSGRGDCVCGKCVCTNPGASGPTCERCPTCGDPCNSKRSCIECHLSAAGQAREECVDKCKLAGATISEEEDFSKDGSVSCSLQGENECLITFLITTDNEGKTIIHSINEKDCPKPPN
Sequence of human integrin αVβ1 (P06756 31-992 limits assumed): as the sequence (P06756 31-992 limits assumed) above
Sequence of human integrin αVβ1 (P05556 21-728 limits assumed): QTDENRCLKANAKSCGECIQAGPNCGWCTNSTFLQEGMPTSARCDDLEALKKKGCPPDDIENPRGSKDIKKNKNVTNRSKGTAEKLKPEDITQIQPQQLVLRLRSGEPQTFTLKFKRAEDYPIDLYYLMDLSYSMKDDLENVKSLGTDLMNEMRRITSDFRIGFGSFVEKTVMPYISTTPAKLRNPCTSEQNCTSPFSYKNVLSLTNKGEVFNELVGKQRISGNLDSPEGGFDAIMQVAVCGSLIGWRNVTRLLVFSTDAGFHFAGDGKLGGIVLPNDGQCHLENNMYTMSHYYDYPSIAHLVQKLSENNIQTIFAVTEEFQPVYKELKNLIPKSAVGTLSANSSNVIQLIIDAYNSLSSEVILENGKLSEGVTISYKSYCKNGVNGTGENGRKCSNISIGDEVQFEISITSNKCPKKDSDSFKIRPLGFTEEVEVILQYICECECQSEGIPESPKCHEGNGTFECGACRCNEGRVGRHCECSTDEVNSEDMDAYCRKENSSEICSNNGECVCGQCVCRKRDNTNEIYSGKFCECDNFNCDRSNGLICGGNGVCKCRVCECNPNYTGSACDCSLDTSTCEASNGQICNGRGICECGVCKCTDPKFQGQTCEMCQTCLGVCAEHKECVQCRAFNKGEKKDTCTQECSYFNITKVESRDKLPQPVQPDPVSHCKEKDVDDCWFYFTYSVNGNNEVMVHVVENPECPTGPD
Sequence of human integrin αVβ8 (P06756 31-992 limits assumed): as the sequence (P06756 31-992 limits assumed) above
Sequence of human integrin αVβ8 (P26012 43-684 limits assumed): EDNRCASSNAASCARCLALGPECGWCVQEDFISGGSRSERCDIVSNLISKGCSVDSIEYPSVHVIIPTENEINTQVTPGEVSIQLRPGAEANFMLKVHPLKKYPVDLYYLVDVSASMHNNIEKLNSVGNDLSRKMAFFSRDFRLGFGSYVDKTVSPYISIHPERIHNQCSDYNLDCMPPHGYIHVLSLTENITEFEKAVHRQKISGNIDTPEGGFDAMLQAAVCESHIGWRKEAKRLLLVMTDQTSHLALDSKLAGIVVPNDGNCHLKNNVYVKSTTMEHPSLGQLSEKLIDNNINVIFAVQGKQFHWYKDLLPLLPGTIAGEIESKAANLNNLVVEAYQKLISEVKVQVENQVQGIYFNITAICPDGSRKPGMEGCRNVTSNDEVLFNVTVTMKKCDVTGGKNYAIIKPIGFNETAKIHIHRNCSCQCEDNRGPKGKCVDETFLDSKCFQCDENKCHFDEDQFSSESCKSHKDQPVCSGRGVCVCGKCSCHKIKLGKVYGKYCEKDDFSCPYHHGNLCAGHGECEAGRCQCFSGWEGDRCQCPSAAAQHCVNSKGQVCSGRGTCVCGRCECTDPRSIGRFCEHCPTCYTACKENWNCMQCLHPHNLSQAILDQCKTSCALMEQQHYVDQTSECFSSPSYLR

`CC(C)(C(=O)NC(CCOCCCCc1ccc2c(n1)NCCC2)C(=O)O)c1ccccc1` (stereo not drawn) [Compound 1, N-(2-methyl-2-phenylpropanoyl)-O-(4-(5,6,7,8-tetrahydro-1,8-naphthyridin-2-yl)butyl)homoserine]: the IC50 on human integrin αVβ1 was below 50 nM; on human integrin αVβ6 it was at least 500 nM; at human integrin αVβ8, 50 to 150 nM.
For `CC(C)(C(=O)N[C@@H](CCOCCCCc1ccc2c(n1)NCCC2)C(=O)O)c1ccccc1` [Compound 2, N-(2-methyl-2-phenylpropanoyl)-O-(4-(5,6,7,8-tetrahydro-1,8-naphthyridin-2-yl)butyl)-L-homoserine], in that order: below 50 nM, at least 500 nM and 50 to 150 nM.
In the same order, the values of `C[C@H](C(=O)N[C@@H](CCOCCCCc1ccc2c(n1)NCCC2)C(=O)O)c1ccccc1` [Compound 3, N—((S)-2-phenylpropanoyl)-O-(4-(5,6,7,8-tetrahydro-1,8-naphthyridin-2-yl)butyl)-L-homoserine] are below 50 nM, at least 500 nM and below 50 nM.
In the same order, the values of `COc1ccc(F)c(F)c1C(C)(C)C(=O)N[C@@H](CCOCCCCc1ccc2c(n1)NCCC2)C(=O)O` [Compound 4, N-(2-(2,3-difluoro-6-methoxyphenyl)-2-methylpropanoyl)-O-(4-(5,6,7,8-tetrahydro-1,8-naphthyridin-2-yl)butyl)-L-homoserine] are 50 to 150 nM, at least 500 nM and 150 to 250 nM.
Consider `CC(C)(C(=O)N[C@@H](CCOCCCCc1ccc2c(n1)NCCC2)C(=O)O)c1c(F)cccc1OC(F)F` [Compound 5, N-(2-(2-(difluoromethoxy)-6-fluorophenyl)-2-methylpropanoyl)-O-(4-(5,6,7,8-tetrahydro-1,8-naphthyridin-2-yl)butyl)-L-homoserine], for which the IC50 on human integrin αVβ1 was below 50 nM; on human integrin αVβ6, at least 500 nM; at human integrin αVβ8, 50 to 150 nM.
For `O=C(O)[C@H](CCOCCCCc1ccc2c(n1)NCCC2)NC(=O)C1(c2ccccc2Cl)CC1` [Compound 6, N-(1-(2-chlorophenyl)cyclopropane-1-carbonyl)-O-(4-(5,6,7,8-tetrahydro-1,8-naphthyridin-2-yl)butyl)-L-homoserine], in that order: below 50 nM, at least 500 nM and below 50 nM.
In the case of `O=C(O)[C@H](CCOCCCCc1ccc2c(n1)NCCC2)NC(=O)C1(c2c(Cl)cccc2Cl)CC1` [Compound 7, N-(1-(2,6-dichlorophenyl)cyclopropane-1-carbonyl)-O-(4-(5,6,7,8-tetrahydro-1,8-naphthyridin-2-yl)butyl)-L-homoserine], the half-maximal inhibitory concentration (IC50) on human integrin αVβ1 is below 50 nM; on human integrin αVβ6 it was at least 500 nM; on human integrin αVβ8, below 50 nM.
Turning to `CC(C)(C(=O)N[C@@H](CCOCCCCc1ccc2c(n1)NCCC2)C(=O)O)c1ccccc1Cl` [Compound 8, N-(2-(2-chlorophenyl)-2-methylpropanoyl)-O-(4-(5,6,7,8-tetrahydro-1,8-naphthyridin-2-yl)butyl)-L-homoserine], the IC50 on human integrin αVβ1 is below 50 nM; on human integrin αVβ6, at least 500 nM; at human integrin αVβ8, 50 to 150 nM.
In the same order, the values of `O=C(O)[C@H](CCOCCCCc1ccc2c(n1)NCCC2)NC(=O)C1(c2ccccc2F)CC1` [Compound 9, N-(1-(2-fluorophenyl)cyclopropane-1-carbonyl)-O-(4-(5,6,7,8-tetrahydro-1,8-naphthyridin-2-yl)butyl)-L-homoserine] are below 50 nM, at least 500 nM and below 50 nM.
For `O=C(O)[C@H](CCOCCCCc1ccc2c(n1)NCCC2)NC(=O)C1(c2ccccc2)CC1` [Compound 10, N-(1-phenylcyclopropane-1-carbonyl)-O-(4-(5,6,7,8-tetrahydro-1,8-naphthyridin-2-yl)butyl)-L-homoserine], in that order: below 50 nM, at least 500 nM and 50 to 150 nM.
In the same order, the values of `O=C(O)[C@H](CCOCCCCc1ccc2c(n1)NCCC2)NC(=O)C1(c2cnccn2)CC1` [Compound 11, N-(1-(pyrazin-2-yl)cyclopropane-1-carbonyl)-O-(4-(5,6,7,8-tetrahydro-1,8-naphthyridin-2-yl)butyl)-L-homoserine] are below 50 nM, at least 500 nM and 50 to 150 nM.
For `O=C(O)[C@H](CCOCCCCc1ccc2c(n1)NCCC2)NC(=O)C1(c2ncccn2)CC1` [Compound 12, N-(1-(pyrimidin-2-yl)cyclopropane-1-carbonyl)-O-(4-(5,6,7,8-tetrahydro-1,8-naphthyridin-2-yl)butyl)-L-homoserine], the figures for the IC50 on human integrin αVβ1, at human integrin αVβ6 and on human integrin αVβ8 were 50 to 150 nM, at least 500 nM and at least 500 nM, respectively.
Take `Cc1ncccc1C1(C(=O)N[C@@H](CCOCCCCc2ccc3c(n2)NCCC3)C(=O)O)CC1` [Compound 13, N-(1-(2-methylpyridin-3-yl)cyclopropane-1-carbonyl)-O-(4-(5,6,7,8-tetrahydro-1,8-naphthyridin-2-yl)butyl)-L-homoserine]: the results for the IC50 on human integrin αVβ1, at human integrin αVβ6 and at human integrin αVβ8 were below 50 nM, at least 500 nM and below 50 nM, respectively.
Turning to `O=C(O)[C@H](CCOCCCCc1ccc2c(n1)NCCC2)NC(=O)C1(c2ncc(F)cc2Cl)CC1` [Compound 14, N-(1-(3-chloro-5-fluoropyridin-2-yl)cyclopropane-1-carbonyl)-O-(4-(5,6,7,8-tetrahydro-1,8-naphthyridin-2-yl)butyl)-L-homoserine], the IC50 on human integrin αVβ1 was below 50 nM; on human integrin αVβ6 it was at least 500 nM; at human integrin αVβ8 it was below 50 nM.
As to `O=C(O)[C@H](CCOCCCCc1ccc2c(n1)NCCC2)NC(=O)C1(c2ncccc2Cl)CC1` [Compound 15, N-(1-(3-chloropyridin-2-yl)cyclopropane-1-carbonyl)-O-(4-(5,6,7,8-tetrahydro-1,8-naphthyridin-2-yl)butyl)-L-homoserine], the half-maximal inhibitory concentration (IC50) on human integrin αVβ1 is below 50 nM; on human integrin αVβ6, at least 500 nM; at human integrin αVβ8, below 50 nM.
For the molecule `Cc1ccncc1C1(C(=O)N[C@@H](CCOCCCCc2ccc3c(n2)NCCC3)C(=O)O)CC1` [Compound 16, N-(1-(4-methylpyridin-3-yl)cyclopropane-1-carbonyl)-O-(4-(5,6,7,8-tetrahydro-1,8-naphthyridin-2-yl)butyl)-L-homoserine], the IC50 on human integrin αVβ1 is below 50 nM; on human integrin αVβ6 it was at least 500 nM; at human integrin αVβ8, below 50 nM.
Take `Cc1ccccc1C1(C(=O)N[C@@H](CCOCCCCc2ccc3c(n2)NCCC3)C(=O)O)CC1` [Compound 17, O-(4-(5,6,7,8-tetrahydro-1,8-naphthyridin-2-yl)butyl)-N-(1-(o-tolyl)cyclopropane-1-carbonyl)-L-homoserine]: the IC50 was 50 to 150 nM at human integrin αVβ1, at least 500 nM on human integrin αVβ6 and below 50 nM at human integrin αVβ8.
In the case of `COc1cccc(C2(C(=O)N[C@@H](CCOCCCCc3ccc4c(n3)NCCC4)C(=O)O)CC2)n1` [Compound 18, N-(1-(6-methoxypyridin-2-yl)cyclopropane-1-carbonyl)-O-(4-(5,6,7,8-tetrahydro-1,8-naphthyridin-2-yl)butyl)-L-homoserine], the IC50 on human integrin αVβ1 was 50 to 150 nM; at human integrin αVβ6, at least 500 nM; at human integrin αVβ8 it was below 50 nM.
In the same order, the values of `Cc1ncncc1C1(C(=O)N[C@@H](CCOCCCCc2ccc3c(n2)NCCC3)C(=O)O)CC1` [Compound 19, N-(1-(4-methylpyrimidin-5-yl)cyclopropane-1-carbonyl)-O-(4-(5,6,7,8-tetrahydro-1,8-naphthyridin-2-yl)butyl)-L-homoserine] are below 50 nM, at least 500 nM and below 50 nM.
For `Cc1cccc(C2(C(=O)N[C@@H](CCOCCCCc3ccc4c(n3)NCCC4)C(=O)O)CC2)n1` [Compound 20, N-(1-(6-methylpyridin-2-yl)cyclopropane-1-carbonyl)-O-(4-(5,6,7,8-tetrahydro-1,8-naphthyridin-2-yl)butyl)-L-homoserine], in that order: 250 to 500 nM, at least 500 nM and at least 500 nM.
In the same order, the values of `O=C(O)[C@H](CCOCCCCc1ccc2c(n1)NCCC2)NC(=O)C1(c2cc(F)cnc2F)CC1` [Compound 21, N-(1-(2,5-difluoropyridin-3-yl)cyclopropane-1-carbonyl)-O-(4-(5,6,7,8-tetrahydro-1,8-naphthyridin-2-yl)butyl)-L-homoserine] are below 50 nM, 150 to 250 nM and below 50 nM.
With `O=C(O)[C@H](CCOCCCCc1ccc2c(n1)NCCC2)NC(=O)C1(c2cncnc2)CC1` [Compound 22, N-(1-(pyrimidin-5-yl)cyclopropane-1-carbonyl)-O-(4-(5,6,7,8-tetrahydro-1,8-naphthyridin-2-yl)butyl)-L-homoserine], the IC50 is below 50 nM on human integrin αVβ1, at least 500 nM on human integrin αVβ6 and 150 to 250 nM at human integrin αVβ8.
